In patent publication US20260151516A1, “NEW PET TRACER FOR IMAGING OF THE FUNCTIONAL HEPATIC RESERVE” (Medizinische Universität Innsbruck, priority 2022, published 2026):
Several values for one entry are separate records, joined by “and”; a condition that tells them apart may be missing. Equal entries are not always repeated. Where two headings read alike, the source gives them in different places. Blank lines part the entries; values can stand above or below the molecule they belong to.

Columns and labels:
[1] = Biodistribution studies incl. blocking experiments; type: in vivo; conditions: healthy BALB/c mice
Procedure: For biodistribution studies 6 week old female BALB/c mice (n=3) were injected with 0.1 nmol (100 μL, approx. 1 MBq) of labelled compound via the lateral tail vein and sacrificed after 10, 30, or 60 min by cervical dislocation. The mice were dissected, blood and organs (spleen, pancreas, stomach, intestine, liver, kidney, heart, lung, muscle, and bone) were weighed, and their activity measured in a γ-counter. For blocking experiments, mice were co-injected with 100 μL of a 277 mM Galactose/PBS solution. In case of [^68Ga]Ga-TRAP-GalNAc a 277 mM N-Acetylgalactose solution was used.

[2] = Partition coefficient (log D), n-Octanol/PBS; type: physicochemical
Procedure: The vials were vortexed for 5 min at 1,500 rpm and then centrifuged for 5 min at 20,000 rcf (Eppendorf Centrifuge 5424).

[3] = Ligand stability in PBS (radio-HPLC); type: physicochemical; conditions: 37° C., over the time course of 2 h
Procedure: (§1) Ligand stability in human blood serum (n=2) and PBS (n=1) was determined for different time points (2 min, 30 min, 60 min, 120 min). Therefore, approx. 5 MBq of radioligand was added to 1 mL of fresh human serum or PBS and incubated at 37° C. At each given time point 100 μL of the mixture were transferred to a 1.5 mL Eppendorf tube containing 100 μL of acetonitrile. The vial was vortexed and centrifuged for 2 min at 14,000 rpm before 100 μL of the supernatant were diluted with 200 μL of water and injected into analytical radio-HPLC. The PBS solution was directly injected into the radio-HPLC. Ligand stability was determined by integrating the areas of the signals in the radio chromatogram in relation to the signal of the intact ligand.

[4] = Ligand stability in human blood serum (radio-HPLC); type: in vitro ADME; conditions: for Serum stability (% of intact ligand): 37° C.; for Stability in human blood serum (% intact tracer): over the time course of 2 h
Procedure: as §1

[5] = target: T1, Recombinant human ASGR1 (Homo sapiens, UniProt P07306); experiment: In vitro binding study, isolated receptor-based assay against ^125I-Asialoorosomucoid; conditions: recombinant human ASGR1, ^125I-Asialoorosomucoid 50 nM, n = 3; method used [^natGa]Ga-NODAGA-TriGalactan
T1 construct: His tag (inferred from immobilisation on Ni-coated plates)
T1 sequence (P07306 1-291): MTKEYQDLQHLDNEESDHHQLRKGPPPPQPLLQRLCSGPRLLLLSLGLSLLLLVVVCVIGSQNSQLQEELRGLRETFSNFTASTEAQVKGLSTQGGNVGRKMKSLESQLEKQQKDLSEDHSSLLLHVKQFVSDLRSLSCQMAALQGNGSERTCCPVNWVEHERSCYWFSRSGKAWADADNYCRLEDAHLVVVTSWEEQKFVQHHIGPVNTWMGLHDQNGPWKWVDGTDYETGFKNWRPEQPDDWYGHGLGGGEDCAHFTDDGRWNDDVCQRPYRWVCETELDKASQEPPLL
Procedure: Recombinant human ASGR1 was seeded out into Ni-coated 96 well plates (Pierce, Thermo Fisher) in PBS at a concentration of 2 μg/mL for at least 2 h at room temperature under mild agitation (200 1/min). Unbound receptor was removed by washing the wells twice with binding buffer (25 mM Tris×HCl, 150 mM NaCl, 0.05% TWEEN 20, pH=7.4). Next 140 μL of binding buffer as well as 20 μL of a 19 mM CaCl2-solution were added to the wells followed by addition of either 20 μL of PBS (control) or 20 μL of [^natGa]Ga-NODAGA-TriGalactan in PBS. Final ligand concentrations were ranging from 10^−5-10^−11 M. Lastly 20 μL of ^125I-Asialoorosomucoid (50 nM, 2.4 kBq per well) were added and the plate was incubated for 1 hour at room temperature under mild agitation (200 rpm). Supernatants were removed and the wells washed twice with 200 μL of PBS before receptor bound activity was released by addition of 200 μL of hot (60° C.) 1 M NaOH. Wells were incubated with NaOH for 10 min. Lysates were removed and the wells washed again twice with 200 μL of hot NaOH. The activity content in the lysates was quantified in a γ-counter and the values plotted in excel. Fitting of the sigmoidal binding curve and the calculation of the IC50 value was done with Excel's solver plugin.

[6] = tested on: human serum; experiment: Protein binding in fresh human serum (Sephadex MicroSpin G-50 columns); type: in vitro ADME; conditions: 37° C.
Procedure: Protein binding was determined for different time points (2 min, 30 min, 60 min, 120 min) in triplicates using Sephadex MicroSpin G-50 columns (GE-Healthcare, Chicago, Illinois, USA). The columns were spun initially at 20,000 rcf for 1 min to remove the storage buffer. Then approx. 5 MBq of radioligand was added to 1 mL of fresh human serum and incubated at 37° C. At each given timepoint 25 μL of the mixture was loaded on to the column, which was then spun at 20,000 rcf for 1 min. The activity content on the column (free radioligand) and in the filtrate (protein bound fraction) was quantified in a γ-counter.

[7] = 30 min p.i., blocking with 277 mM galactose

Biodistribution Blood ([1]; 10 min p.i.): 3.3 ± 0.2 % ID/g
Biodistribution Femur ([1]; 10 min p.i.): 0.87 ± 0.52 % ID/g
Biodistribution Intestine ([1]; 10 min p.i.): 1.13 ± 0.07 % ID/g
Biodistribution Kidneys ([1]; 10 min p.i.): 8.2±0.5 % ID/g and 8.15 ± 0.54 % ID/g
Biodistribution Liver ([1]; 10 min p.i.): 33.4±0.9 % ID/g and 33.4 ± 0.88 % ID/g
Biodistribution Lung ([1]; 10 min p.i.): 2.14 ± 0.13 % ID/g
Biodistribution Muscle ([1]; 10 min p.i.): 0.77 ± 0.02 % ID/g
Biodistribution Pancreas ([1]; 10 min p.i.): 0.87 ± 0.12 % ID/g
Biodistribution Spleen ([1]; 10 min p.i.): 0.78 ± 0.05 % ID/g
Biodistribution Blood ([1]; 30 min p.i.): 0.89 ± 0.09 % ID/g
Biodistribution Femur ([1]; 30 min p.i.): 0.22 ± 0.02 % ID/g
Biodistribution Heart ([1]; 30 min p.i.): 0.40 ± 0.03 % ID/g
Biodistribution Intestine ([1]; 30 min p.i.): 1.95 ± 0.17 % ID/g
Biodistribution Kidneys ([1]; 30 min p.i.): 2.83 ± 0.18 % ID/g
Biodistribution Liver ([1]; 30 min p.i.): 32.2±3.7 % ID/g
Biodistribution Lung ([1]; 30 min p.i.): 0.74 ± 0.03 % ID/g
Biodistribution Muscle ([1]; 30 min p.i.): 0.23 ± 0.03 % ID/g
Biodistribution Pancreas ([1]; 30 min p.i.): 0.31 ± 0.05 % ID/g
Biodistribution Spleen ([1]; 30 min p.i.): 0.27 ± 0.02 % ID/g
Biodistribution Stomach ([1]; 30 min p.i.): 1.05 ± 0.08 % ID/g
Biodistribution Blood [1, 7]: 1.19 ± 0.33 % ID/g
Biodistribution Femur [1, 7]: 0.37 ± 0.16 % ID/g
Biodistribution Heart [1, 7]: 0.44 ± 0.03 % ID/g
Biodistribution Intestine [1, 7]: 0.77 ± 0.19 % ID/g
Biodistribution Kidneys [1, 7]: 4.19 ± 0.29 % ID/g
Biodistribution Liver [1, 7]: 13.9±1.0 % ID/g and 14.6 ± 0.15 % ID/g
Biodistribution Lung [1, 7]: 0.97 ± 0.04 % ID/g
Biodistribution Muscle [1, 7]: 0.43 ± 0.20 % ID/g
Biodistribution Pancreas [1, 7]: 0.45 ± 0.01 % ID/g
Biodistribution Spleen [1, 7]: 0.32 ± 0.03 % ID/g
Biodistribution Stomach [1, 7]: 0.68 ± 0.11 % ID/g
Biodistribution Blood ([1]; 60 min p.i.): 0.3±0.04 % ID/g and 0.34 ± 0.04 % ID/g
Biodistribution Femur ([1]; 60 min p.i.): 0.26 ± 0.19 % ID/g
Biodistribution Heart ([1]; 60 min p.i.): 0.17 ± 0.00 % ID/g
Biodistribution Intestine ([1]; 60 min p.i.): 3.0±0.4 % ID/g and 2.99 ± 0.43 % ID/g
Biodistribution Kidneys ([1]; 60 min p.i.): 1.51 ± 0.10 % ID/g
Biodistribution Liver ([1]; 60 min p.i.): 27.7±3.1 % ID/g and 27.7 ± 3.12 % ID/g
Biodistribution Lung ([1]; 60 min p.i.): 0.38 ± 0.10 % ID/g
Biodistribution Muscle ([1]; 60 min p.i.): 0.17 ± 0.02 % ID/g
Biodistribution Pancreas ([1]; 60 min p.i.): 0.19 ± 0.09 % ID/g
Biodistribution Spleen ([1]; 60 min p.i.): 0.16 ± 0.02 % ID/g
Biodistribution Stomach ([1]; 60 min p.i.): 0.92 ± 0.04 % ID/g
logD ([2]; read-out: logD): -4.33 ± 0.09
Stability in PBS (% intact tracer) [3]: > 99%
Serum stability (% of intact ligand) ([4]; 2 min): 99.8%
Serum stability (% of intact ligand) ([4]; 30 min): 97.6%
Serum stability (% of intact ligand) ([4]; 60 min): 98.5%
Serum stability (% of intact ligand) ([4]; 120 min): 92.9%
Stability in human blood serum (% intact tracer) [4]: > 93%
IC50 [5]: 1.7 nM
Protein binding (%) ([6]; 2 min): 7.6±3.9%
Protein binding (%) ([6]; 30 min): 5.5%
Protein binding (%) ([6]; 60 min): 9.2%
Protein binding (%) ([6]; 120 min): 13.6±3.2%
SMILES: O=C(O)CN1CCN(CC(=O)O)CCN([C@H](CCC(=O)NCCCC(=O)NC(COCc2cn(CCOCCOCCO[C@@H]3O[C@H](CO)[C@H](O)[C@H](O)[C@H]3O)nn2)(COCc2cn(CCOCCOCCO[C@@H]3O[C@H](CO)[C@H](O)[C@H](O)[C@H]3O)nn2)COCc2cn(CCOCCOCCO[C@@H]3O[C@H](CO)[C@H](O)[C@H](O)[C@H]3O)nn2)C(=O)O)CC1 [[^68Ga]Ga-NODAGA-TriGalactan, metal not drawn]

SMILES: O=C(CCP(=O)([O-])CN1CCN(CP(=O)([O-])CCC(=O)NCc2cn(CCOCCOCCO[C@@H]3O[C@H](CO)[C@H](O)[C@H](O)[C@H]3O)nn2)CCN(CP(=O)([O-])CCC(=O)NCc2cn(CCOCCOCCO[C@@H]3O[C@H](CO)[C@H](O)[C@H](O)[C@H]3O)nn2)CC1)NCc1cn(CCOCCOCCO[C@@H]2O[C@H](CO)[C@H](O)[C@H](O)[C@H]2O)nn1.[68Ga+3] [[^68Ga]Ga-TRAP-Galactan]
Biodistribution Blood ([1]; 10 min p.i.): 3.66 ± 0.2 % ID/g
Biodistribution Femur ([1]; 10 min p.i.): 0.85 ± 0.33 % ID/g
Biodistribution Heart ([1]; 10 min p.i.): 1.28 ± 0.06 % ID/g
Biodistribution Intestine ([1]; 10 min p.i.): 1.24 ± 0.05 % ID/g
Biodistribution Kidneys ([1]; 10 min p.i.): 7.4±2.1 % ID/g and 7.39 ± 2.1 % ID/g
Biodistribution Liver ([1]; 10 min p.i.): 24.6±1.6 % ID/g
Biodistribution Lung ([1]; 10 min p.i.): 2.31 ± 0.17 % ID/g
Biodistribution Muscle ([1]; 10 min p.i.): 0.91 ± 0.08 % ID/g
Biodistribution Pancreas ([1]; 10 min p.i.): 0.87 ± 0.01 % ID/g
Biodistribution Spleen ([1]; 10 min p.i.): 0.84 ± 0.08 % ID/g
Biodistribution Stomach ([1]; 10 min p.i.): 1.22 ± 0.20 % ID/g
Biodistribution Blood ([1]; 30 min p.i.): 1.6 ± 0.11 % ID/g
Biodistribution Femur ([1]; 30 min p.i.): 0.32 ± 0.05 % ID/g
Biodistribution Heart ([1]; 30 min p.i.): 0.65 ± 0.08 % ID/g
Biodistribution Intestine ([1]; 30 min p.i.): 2.18 ± 0.10 % ID/g
Biodistribution Kidneys ([1]; 30 min p.i.): 4.33 ± 0.35 % ID/g
Biodistribution Liver ([1]; 30 min p.i.): 29.7±1.7 % ID/g
Biodistribution Lung ([1]; 30 min p.i.): 1.09 ± 0.03 % ID/g
Biodistribution Muscle ([1]; 30 min p.i.): 0.37 ± 0.02 % ID/g
Biodistribution Pancreas ([1]; 30 min p.i.): 0.53 ± 0.01 % ID/g
Biodistribution Spleen ([1]; 30 min p.i.): 0.42 ± 0.07 % ID/g
Biodistribution Stomach ([1]; 30 min p.i.): 1.00 ± 0.27 % ID/g
Biodistribution Blood [1, 7]: 1.35 ± 0.52 % ID/g
Biodistribution Femur [1, 7]: 0.27 ± 0.09 % ID/g
Biodistribution Heart [1, 7]: 0.44 ± 0.09 % ID/g
Biodistribution Intestine [1, 7]: 1.02 ± 0.18 % ID/g
Biodistribution Kidneys [1, 7]: 3.70 ± 0.53 % ID/g
Biodistribution Liver [1, 7]: 10.6 ± 1.4 % ID/g
Biodistribution Lung [1, 7]: 0.86 ± 0.14 % ID/g
Biodistribution Muscle [1, 7]: 0.30 ± 0.04 % ID/g
Biodistribution Pancreas [1, 7]: 0.37 ± 0.04 % ID/g
Biodistribution Spleen [1, 7]: 0.29 ± 0.03 % ID/g
Biodistribution Stomach [1, 7]: 0.49 ± 0.07 % ID/g
Biodistribution Blood ([1]; 60 min p.i.): 0.3±0.09 % ID/g
Biodistribution Femur ([1]; 60 min p.i.): 0.13 ± 0.03 % ID/g
Biodistribution Heart ([1]; 60 min p.i.): 0.16 ± 0.02 % ID/g
Biodistribution Intestine ([1]; 60 min p.i.): 2.8±0.2 % ID/g and 2.80 ± 0.24 % ID/g
Biodistribution Kidneys ([1]; 60 min p.i.): 1.72 ± 0.17 % ID/g
Biodistribution Liver ([1]; 60 min p.i.): 25.0 ± 1.1 % ID/g
Biodistribution Lung ([1]; 60 min p.i.): 0.32 ± 0.05 % ID/g
Biodistribution Muscle ([1]; 60 min p.i.): 0.15 ± 0.03 % ID/g
Biodistribution Pancreas ([1]; 60 min p.i.): 0.16 ± 0.02 % ID/g
Biodistribution Spleen ([1]; 60 min p.i.): 0.17 ± 0.07 % ID/g
Biodistribution Stomach ([1]; 60 min p.i.): 0.31 ± 0.21 % ID/g
logD [2]: −4.26±0.08
Stability in PBS (% intact tracer) [3]: > 99%
Serum stability (% of intact ligand) ([4]; 2 min): 97.7 ± 0.3%
Serum stability (% of intact ligand) ([4]; 30 min): 97.6 ± 0.2%
Serum stability (% of intact ligand) ([4]; 60 min): 97.6 ± 0.1%
Serum stability (% of intact ligand) ([4]; 120 min): 97.9 ± 0.1%
Stability in human blood serum (% intact tracer) [4]: > 98%
Protein binding (%) ([6]; 2 min): 8.2±3.4%
Protein binding (%) ([6]; 30 min): 6.4 ± 1.8%
Protein binding (%) ([6]; 60 min): 12.0 ± 3.1%
Protein binding (%) ([6]; 120 min): 11.6±2.2%
